For one data set, the target named is ERα (Homo sapiens, UniProt P03372). The experiment in a line: MCF7 3X ERE-LUC transcriptional reporter assay (ERα antagonist). Conditions: 0.1 nM 17β-estradiol, 24 hr.
Data set [1] can be described thus: GDC-0810 mouse pharmacokinetics.
In data set [2] the test system is MDA-MB-231, an ER negative human breast cancer tumor model. Nature of the data set: MDA-MB-231 xenograft efficacy. It is filed as in vivo, mice. Conditions: GDC-0810 100 mg/kg/day p.o., 29 days.
In a further data set the target is T1, MR (Homo sapiens, UniProt P08235).
T1 construct: expressed in transfected cells; host or cells: HEPG2
T1 sequence (P08235 1-984): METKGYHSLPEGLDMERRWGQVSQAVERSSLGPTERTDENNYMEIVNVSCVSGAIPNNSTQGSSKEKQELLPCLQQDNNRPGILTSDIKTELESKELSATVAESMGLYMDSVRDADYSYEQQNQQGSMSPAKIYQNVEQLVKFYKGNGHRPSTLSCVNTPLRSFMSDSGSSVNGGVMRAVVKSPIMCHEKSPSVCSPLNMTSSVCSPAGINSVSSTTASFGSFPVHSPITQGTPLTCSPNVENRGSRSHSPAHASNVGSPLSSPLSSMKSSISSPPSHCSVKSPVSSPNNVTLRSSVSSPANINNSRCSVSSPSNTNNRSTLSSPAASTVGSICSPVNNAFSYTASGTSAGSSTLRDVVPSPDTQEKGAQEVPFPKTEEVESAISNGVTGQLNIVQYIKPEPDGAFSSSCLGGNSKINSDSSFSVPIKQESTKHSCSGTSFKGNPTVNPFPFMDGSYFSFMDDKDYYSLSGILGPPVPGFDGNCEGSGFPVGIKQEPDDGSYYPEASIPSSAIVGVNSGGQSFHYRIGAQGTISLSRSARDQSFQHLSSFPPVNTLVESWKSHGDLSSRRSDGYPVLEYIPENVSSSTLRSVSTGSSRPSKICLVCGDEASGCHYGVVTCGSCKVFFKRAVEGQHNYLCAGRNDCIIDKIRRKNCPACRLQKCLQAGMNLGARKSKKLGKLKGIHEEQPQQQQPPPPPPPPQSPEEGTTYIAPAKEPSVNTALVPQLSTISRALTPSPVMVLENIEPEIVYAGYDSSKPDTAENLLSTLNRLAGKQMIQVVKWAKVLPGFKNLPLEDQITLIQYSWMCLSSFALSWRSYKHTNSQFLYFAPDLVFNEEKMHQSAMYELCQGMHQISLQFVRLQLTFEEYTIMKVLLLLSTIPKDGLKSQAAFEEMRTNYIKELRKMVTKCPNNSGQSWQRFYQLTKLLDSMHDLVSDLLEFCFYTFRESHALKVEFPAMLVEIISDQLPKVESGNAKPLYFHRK
The experiment in a line: MR transcriptional reporter assay, antagonist mode (HEPG2 cells). Format: cell-based. Conditions: 1 nM aldosterone. For orientation: A reporter such as luciferase makes a cellular process visible.

The target of a further data set is T2, PR-B (Homo sapiens, UniProt P06401).
T2 construct: cloning full-length human PRb into pCDNA; expressed in transfected cells; host or cells: HEPG2
T2 sequence (P06401 1-933): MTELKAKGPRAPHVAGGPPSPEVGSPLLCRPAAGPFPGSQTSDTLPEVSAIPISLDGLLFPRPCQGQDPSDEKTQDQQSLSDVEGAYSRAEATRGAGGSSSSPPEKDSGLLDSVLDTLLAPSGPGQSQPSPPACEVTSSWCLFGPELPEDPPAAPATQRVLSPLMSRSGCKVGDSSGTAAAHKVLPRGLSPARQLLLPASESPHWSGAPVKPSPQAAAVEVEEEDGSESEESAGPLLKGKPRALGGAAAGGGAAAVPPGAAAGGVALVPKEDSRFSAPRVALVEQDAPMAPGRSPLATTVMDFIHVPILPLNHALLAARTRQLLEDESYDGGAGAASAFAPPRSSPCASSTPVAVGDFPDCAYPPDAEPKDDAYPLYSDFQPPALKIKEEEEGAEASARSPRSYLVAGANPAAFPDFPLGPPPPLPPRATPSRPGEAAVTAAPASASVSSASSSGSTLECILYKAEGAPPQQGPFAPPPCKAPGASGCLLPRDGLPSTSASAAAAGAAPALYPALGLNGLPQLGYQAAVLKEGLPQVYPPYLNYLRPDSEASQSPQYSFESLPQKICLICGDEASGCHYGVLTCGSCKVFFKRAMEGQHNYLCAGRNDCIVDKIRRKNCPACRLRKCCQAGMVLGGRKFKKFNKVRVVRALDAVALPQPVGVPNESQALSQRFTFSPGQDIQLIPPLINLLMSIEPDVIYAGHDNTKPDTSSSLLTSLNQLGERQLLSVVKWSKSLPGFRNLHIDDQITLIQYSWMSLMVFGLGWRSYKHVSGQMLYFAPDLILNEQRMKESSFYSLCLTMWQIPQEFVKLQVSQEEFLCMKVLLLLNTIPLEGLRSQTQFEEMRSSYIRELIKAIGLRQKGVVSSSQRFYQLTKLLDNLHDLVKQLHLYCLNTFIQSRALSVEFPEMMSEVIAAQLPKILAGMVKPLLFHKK
Nature of the data set: PR-B transcriptional reporter assay, antagonist mode (HEPG2 cells). It is filed as cell-based. Conditions: 1 nM R5020.

ERα, sequence (P03372 whole entry): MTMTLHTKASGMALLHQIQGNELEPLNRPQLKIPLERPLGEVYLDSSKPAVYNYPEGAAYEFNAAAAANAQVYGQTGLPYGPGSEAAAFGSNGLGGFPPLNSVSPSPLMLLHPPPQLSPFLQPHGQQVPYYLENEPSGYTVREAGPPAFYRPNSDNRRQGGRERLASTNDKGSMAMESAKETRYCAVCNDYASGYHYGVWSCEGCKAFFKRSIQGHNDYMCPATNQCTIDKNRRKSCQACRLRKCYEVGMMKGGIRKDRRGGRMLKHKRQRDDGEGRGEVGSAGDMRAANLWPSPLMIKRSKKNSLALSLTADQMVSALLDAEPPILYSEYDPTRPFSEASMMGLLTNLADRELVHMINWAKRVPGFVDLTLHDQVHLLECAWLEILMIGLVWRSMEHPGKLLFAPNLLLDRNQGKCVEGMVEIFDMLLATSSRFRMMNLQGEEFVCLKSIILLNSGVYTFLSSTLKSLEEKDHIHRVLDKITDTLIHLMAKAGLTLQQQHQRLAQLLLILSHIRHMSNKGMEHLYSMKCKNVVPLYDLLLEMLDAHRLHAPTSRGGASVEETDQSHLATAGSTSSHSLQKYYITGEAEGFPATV

For `C[C@]12CC[C@@H]3c4ccc(O)cc4C[C@@H](CCCCCCCCC[S+]([O-])CCCC(F)(F)C(F)(F)F)[C@H]3[C@@H]1CC[C@@H]2O` (some centres unmarked) [Fulvestrant], on ERα, the “Transcription 3X ERE-LUC Emax” value was found to be 4.1 ± 2.6 % E2.

As to `CC/C(=C(/c1ccc(/C=C/C(=O)O)cc1)c1ccc2[nH]ncc2c1)c1ccc(F)cc1Cl` [GDC-0810], the “Oral %F” value in data set [1] is given as 61%. The Clast in data set [1] (oral gavage, 10 mg/kg/day) worked out at 7 ng/mL; in data set [1] (oral gavage, 30 mg/kg/day), 13 ng/mL. In addition, the AUC(0-t) was 94100 ng·h/mL in data set [1] (oral gavage, 100 mg/kg/day); 5500 ng·h/mL in data set [1] (plasma, po, 10 mg/kg/day); 21500 ng·h/mL in data set [1] (plasma, po, 30 mg/kg/day); 94100 ng·h/mL in data set [1] (plasma, po, 100 mg/kg/day). For the same molecule, the half-life is 2.6 h in data set [1] (plasma); 8 h in data set [1] (plasma, po, 10 mg/kg/day); 4 h in data set [1] (plasma, po, 30 mg/kg/day); 3 h in data set [1] (plasma, po, 100 mg/kg/day). This molecule also gave a volume of distribution (Vd) in data set [1] (plasma, intravenous) of 1.2 L/kg. Besides, the clearance in data set [1] (plasma, intravenous) was found to be 11 mL/min/kg. The area under the curve AUC(0-inf) in data set [1] (plasma, po) turned out to be 8800 ng·h/mL. Besides, the Cmax in data set [1] (plasma, po) stood at 4400 ng/mL; in data set [1] (plasma, po, 10 mg/kg/day), 1640 ng/mL; in data set [1] (plasma, po, 30 mg/kg/day), 5330 ng/mL; in data set [1] (plasma, po, 100 mg/kg/day), 9310 ng/mL. The Tmax in data set [1] (plasma, po, 10 mg/kg/day) amounted to 1 h; in data set [1] (plasma, po, 30 mg/kg/day) it was 1 h; in data set [1] (plasma, po, 100 mg/kg/day) it was 8 h. For the same molecule, the concentration at 24 h in data set [1] (plasma, po, 100 mg/kg/day) was 216 ng/mL. In addition, the “Tumor growth response, MDA-MB-231 xenograft” value in data set [2] is “did not exhibit any anti-tumor activity”.

Take `CC/C(=C(\c1ccc(O)cc1)c1ccc(OCCN(C)C)cc1)c1ccccc1` [4-OH Tam, 4-hydroxytamoxifen]: the IC50 against MR was 6.42 ± 0.75 µM; against PR-B it was 7.16 ± 2.15 µM.

What is called AUC(0-t) is the area under the concentration-time curve up to a stated or last time point. The low end stands for low exposure, the high end for high exposure. Usually half-life stands for the time in which the quantity being followed falls by half. Low readings indicate fast loss, high ones slow loss. The term Vd denotes a proportionality between amount in the body and measured concentration, not a real space. Read a high Vd as wide distribution into tissue. A word on the clearance: it is the rate of elimination divided by the concentration. Read a low clearance as a low capacity for elimination. Usually AUC(0-inf) stands for the area under the concentration-time curve extrapolated to infinity. A low value points to less exposure. The term Cmax denotes the maximum level reached in the sampled fluid or tissue. What is called Tmax is the time from dosing to the highest level. Broadly, the IC50 is the midpoint of a concentration-inhibition curve. Read a high IC50 as weaker potency in that assay.
